Measured values reported in publication PMC7767053, “Functional Analysis of Odorant-Binding Proteins 12 and 17 from Wheat Blossom Midge Sitodiplosis mosellana Géhin (Diptera: Cecidomyiidae)” (Insects, 2020).
“Also recorded” adds a separate entry of the source. Like-named read-outs stand apart in the source and are kept apart here.

Key:
[1] = biological target: SmosOBP17 (Sitodiplosis mosellana, UniProt A0A346RTY9); experiment: Fluorescence competitive binding assay with 1-NPN probe, recombinant SmosOBP17; conditions: for Ki: calculated from IC50, Ki = [IC50]/(1 + [1-NPN]/K1-NPN); for binding to SmosOBP17 (in words): fluorescence competitive binding
Sequence of SmosOBP17 (A0A346RTY9 entry or part of it): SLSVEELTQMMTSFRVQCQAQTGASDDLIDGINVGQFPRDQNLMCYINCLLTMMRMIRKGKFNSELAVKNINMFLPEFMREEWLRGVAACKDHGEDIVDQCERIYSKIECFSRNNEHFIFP
Method: (§1) To determine binding affinities of SmosOBP12 and SmosOBP17 to host plant volatile compounds, fluorescence competitive binding assays were conducted using 1-N-phenyl-naphthylamine (1-NPN) as the fluorescent probe. Twenty-eight volatile compounds from winter wheat (Table 2) were selected based on our previous research. Both the probe and candidate ligands were dissolved in chromatographic-grade methanol to obtain 1 mM stock solutions, whereas recombinant SmosOBPs were diluted in 20 mM Tris-HCl (pH 7.4) to 2 μM. Fluorescence intensity was detected on an F-4600 fluorescence spectrophotometer (Hitachi, Tokyo, Japan) with a 1 cm light path quartz cuvette. Slits of both excitation and emissions were 10 nm in width. The probe was excited at 337 nm, and emission spectra were recorded between 370 and 550 nm.
(§2) Affinities of SmosOBPs to tested volatile ligands were measured by competition assays: to the 1 mL solution containing 2 μM recombinant protein and 2 μM 1-NPN, 1 mM solution of each putative volatile ligand (in a 2 µL aliquot) was added to final concentrations of 2–14 μM for SmosOBP12 and 2–40 μM for SmosOBP17, respectively. Maximal fluorescence intensities were plotted against ligand concentrations. Data were obtained from three independent measurements.
(§3) The Kd value was calculated using GraphPad Prism 5 (GraphPad Software Inc., La Jolla, CA, USA) via nonlinear regression for a unique site of binding. The inhibition constant (Ki) of each ligand competitor was calculated from the corresponding IC50 value (the concentration of competitor displacing 50% of initial fluorescence intensity) according to the equation: Ki = [IC50]/(1 + [1-NPN]/K1-NPN), where [1-NPN] is the free concentration of 1-NPN, and K1-NPN is the dissociation constant of the SmosOBPs/1-NPN complex.

[2] = biological target: SmosOBP12 (Sitodiplosis mosellana, UniProt A0A346RTY7); experiment: Fluorescence competitive binding assay with 1-NPN probe, recombinant SmosOBP12; conditions: for Ki: calculated from IC50, Ki = [IC50]/(1 + [1-NPN]/K1-NPN); for binding to SmosOBP12 (in words): fluorescence competitive binding
Sequence of SmosOBP12 (A0A346RTY7 entry or part of it): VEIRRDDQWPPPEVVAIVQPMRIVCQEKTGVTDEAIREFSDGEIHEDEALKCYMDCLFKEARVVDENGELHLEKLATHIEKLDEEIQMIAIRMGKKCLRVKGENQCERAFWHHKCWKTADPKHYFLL
Method: as §1, §2, §3

[3] = tested on: S. mosellana females; experiment: Y-tube olfactometer bioassay; assay type: in vivo, Sitodiplosis mosellana; conditions: 10 μL of 20 μg/μL in paraffin oil vs paraffin oil control; 60 females
Method: Behavioral responses of S. mosellana females to the 28 volatile ligands were measured in a glass Y-tube olfactometer. The base and two arms of the Y-tube are 15 cm in length and 25 mm in internal diameter. The angle between arms is 60°. A 10 μL aliquot of the test chemical in paraffin oil at a concentration of 20 μg/μL [45] was applied to a filter paper strip (20 × 20 mm), which was allowed to evaporate for 20 s and then placed into one of the two odor bottles. The other odor bottle contained a filter paper strip treated with 10 μL of paraffin oil as the control. Moist, activated-charcoal filtered air entered both odor bottles connected by Teflon tubing to their respective arms of the Y-tube. The airflow rate through the olfactometer was 100 mL/min, which was measured by a float rotor meter. A newly emerged female S. mosellana adult was introduced into the end of the base of the Y-tube, which was then immediately covered with a dark paper box. An office lamp (20 W) illuminated the joint of two arms to facilitate observation. The choice was made if the S. mosellana female walked or flew 5 cm past the Y junction within 5 min and remained there for at least 15 s. Otherwise, it would be recorded as no-choice. Odor source was renewed for every five individuals. After testing for 10 individuals, the Y-tube was thoroughly cleaned with 95% ethanol and dried, and the treatment and control arms were switched to avoid the directional bias. After one odor source was tested, the Y-tube, odor bottles, and Teflon tubing were cleaned and dried before reuse. All experiments were conducted in a laboratory with a temperature of 25 ± 1 °C from 5:00 to 9:00 p.m. Sixty female adults were tested in each treatment group, and each individual was used only once. The choice response of insects in each treatment group was analyzed by the chi-square test using SPSS 20.0 software (Chicago, IL, USA). Non-selecting insects were recorded but not included in the statistical analysis.

[4] = tested on: female antennae of S. mosellana; set-up: method as in Cheng et al., 2020; conditions: ref Cheng et al., 2020; cited from earlier work
[5] = tested on: SmosOBP16; set-up: method as in PMID 31017726; conditions: cited from earlier work
[6] = tested on: SmosOBP21; set-up: method as in PMID 31017726; conditions: cited from earlier work
[7] = tested on: SmosOBP11; set-up: method as in PMID 31017726; conditions: cited from earlier work
[8] = displacement of 1-NPN, 2 μM protein, 2 μM 1-NPN, ligand 2–40 μM, three independent measurements, read-out: SmosOBP17 IC50
[9] = displacement of 1-NPN, 2 μM protein, 2 μM 1-NPN, ligand 2–14 μM, three independent measurements, read-out: SmosOBP12 IC50

| Structure (SMILES) | IC50 [1, 8] [µM] | behavioral response of S. mosellana female adults [3] | Ki ([2]; read-out: SmosOBP12 Ki) [µM] | IC50 [2, 9] [µM] | Ki [1] [µM] | binding to SmosOBP17 (in words) [1] | other results |
| --- | --- | --- | --- | --- | --- | --- | --- |
| CCCCC(C)=O [2-Hexanone] | – | – | – | – | – | – | IC50 [1]: > 40 µM; IC50 [2]: 12.66 ± 0.08 µM; Ki ([2]; SmosOBP12 Ki): 10.25 ± 0.06 µM |
| CC1=CCC2C(C1)C2(C)C (stereo not drawn) [3-Carene] | > 40 | intensive response; also recorded: significant attraction | 3.84 ± 0.12 | 4.76 ± 0.15 | – | – | – |
| C=CC(O)CCCCC (stereo not drawn) [1-Octen-3-ol] | > 40 | intensive response; also recorded: significant attraction; also recorded: significantly attracted | 5.29 ± 0.11 | 6.55 ± 0.12 | – | – | electrophysiological response on female antennae [4]: strong electrophysiological responses |
| CCCCCOC(=O)CCCC [Pentyl pentanoate] | > 40 | – | 4.24 ± 0.03 | 5.23 ± 0.01 | – | – | – |
| CCCCCCCCCCCC=O [Dodecanal] | > 40 | – | 8.06 ± 0.37 | 9.94 ± 0.44 | > 30 | did not bind | binding to SmosOBP12 (in words) [2]: bound |
| CCCCCCOC(=O)CC [Hexyl propionate] | – | – | 5.9 ± 0.12 | 7.28 ± 0.16 | – | – | – |
| CC1=CC[C@@]23CC1C(C)(C)[C@@H]2CC[C@H]3C [α-Cedrene] | > 40 | – | > 11.3 | > 14 | > 30 | did not show any affinity | binding to SmosOBP12 (in words) [2]: did not show any affinity |
| CCCCC(=O)CCCC [5-Nonanone] | > 40 | – | 6.72 ± 0.1 | 8.32 ± 0.14 | – | – | – |
| C=C/C(C)=C/C/C=C(\C)CCC=C(C)C [α-Farnesene] | > 40 | intensive response; also recorded: significant repulsion; also recorded: repelled | > 11.3 | > 14 | > 30 | did not show any affinity; also recorded: no affinity | binding to SmosOBP16 (in words) [5]: no affinity; binding to SmosOBP21 (in words) [6]: no affinity; binding to SmosOBP11 (in words) [7]: no affinity; binding to SmosOBP12 (in words) [2]: did not show any affinity; also recorded: no affinity |
| CC(C)(CO)[C@@H](O)C(=O)NCCCO [D-Panthenol] | 38.01 ± 0.2 | intensive response; also recorded: significant attraction; also recorded: significantly attracted | 4.07 ± 0.05 | 5.04 ± 0.08 | 28.55 ± 0.15 | – | electrophysiological response on female antennae [4]: strong electrophysiological responses |
| CCCCC(CC)CO (stereo not drawn) [2-Ethyl hexanol] | > 40 | – | 6.36 ± 0.25 | 7.86 ± 0.31 | > 30 | did not bind | – |
| CCCCCCCCCCCCC [Tridecane] | > 40 | – | > 11.3 | > 14 | > 30 | – | – |
| CC1=CCC2CC1C2(C)C (stereo not drawn) [α-Pinene] | – | – | – | – | – | did not bind | IC50 [1]: > 40 µM; IC50 [2]: 7.63 ± 0.06 µM; Ki ([2]; SmosOBP12 Ki): 6.17 ± 0.04 µM |
| C/C1=C\CC/C(C)=C/CC(C)(C)/C=C/C1 [α-Humulene] | > 40 | – | > 11.3 | > 14 | > 30 | did not show any affinity | binding to SmosOBP12 (in words) [2]: did not show any affinity |
| C=C1CC/C=C(\C)CC[C@@H]2[C@@H]1CC2(C)C [β-Caryophyllene] | – | – | – | – | – | did not show any affinity | IC50 [1]: > 40 µM; IC50 [2]: > 14 µM; Ki ([2]; SmosOBP12 Ki): > 11.3 µM; binding to SmosOBP12 (in words) [2]: did not show any affinity |
| CCCCCCOC(C)=O [Hexyl acetate] | 33.96 ± 0.03 | intensive response; also recorded: significant attraction; also recorded: significantly attracted | 10.42 ± 0.08 | 12.88 ± 0.09 | 25.51 ± 0.02 | – | electrophysiological response on female antennae [4]: strong electrophysiological responses |
| COC(=O)c1ccccc1O [Methyl salicylate] | – | intensive response; also recorded: significant attraction; also recorded: significantly attracted | – | – | – | – | electrophysiological response on female antennae [4]: strong electrophysiological responses; IC50 [1]: 26.8 ± 0.27 µM; IC50 [2]: 11.9 ± 0.24 µM; Ki ([2]; SmosOBP12 Ki): 9.62 ± 0.33 µM |
| c1ccc(Nc2cccc3ccccc23)cc1 [1-NPN, 1-N-phenyl-naphthylamine, reference compound] | – | – | – | – | – | – | Kd ([1]; 2 µM protein titrated with 1-NPN 0–24 µM, read-out: dissociation constant (Kd) of SmosOBP17 with 1-NPN): 3.02 µM; Kd ([2]; 2 µM protein titrated with 1-NPN 0–24 µM, read-out: dissociation constant (Kd) of SmosOBP12 with 1-NPN): 4.26 µM |
| CC/C=C\CCOC(C)=O [(Z)-3-Hexenyl acetate] | > 40 | intensive response; also recorded: significant attraction; also recorded: significantly attracted | 7.18 ± 0.01 | 8.88 ± 0.02 | – | – | electrophysiological response on female antennae [4]: strong electrophysiological responses |
| CCCCCCC(=O)OCC [Ethyl heptanoate] | 38.28 ± 0.12 | intensive response; also recorded: significant attraction; also recorded: significantly attracted | 7.29 ± 0.09 | 9 ± 0.11 | 28.76 ± 0.09 | – | electrophysiological response on female antennae [4]: strong electrophysiological responses |
| CC(=O)OCCCCCC(C)C [Isooctyl acetate] | > 40 | – | > 11.3 | > 14 | > 30 | did not show any affinity | binding to SmosOBP12 (in words) [2]: did not show any affinity |
| CCCC(O)CC (stereo not drawn) [3-Hexanol] | 34.68 ± 0.34 | intensive response; also recorded: significant attraction; also recorded: significantly attracted | 3.33 ± 0.05 | 4.12 ± 0.07 | 26.05 ± 0.25 | – | electrophysiological response on female antennae [4]: strong electrophysiological responses |
| CCCCCCCOC(C)=O [Heptyl acetate] | 28.79 ± 0.09 | intensive response; also recorded: significant attraction; also recorded: significantly attracted | 3.34 ± 0.02 | 4.11 ± 0.02 | 21.63 ± 0.06 | – | electrophysiological response on female antennae [4]: strong electrophysiological responses |
| CCCCCCCCCCCO [Undecanol] | > 40 | – | 4.39 ± 0.02 | 5.43 ± 0.03 | – | – | – |
| CCCC(=O)CC [3-Hexanone] | 37.1 ± 0.06 | – | 6.26 ± 0.03 | 7.74 ± 0.04 | 27.87 ± 0.04 | – | – |
| CCCCCCCCCCCCCCC [Pentadecane] | > 40 | – | > 11.3 | > 14 | > 30 | – | – |
| CCCCCCCCCCCC(C)=O [2-Tridecanone] | > 40 | – | > 11.3 | > 14 | > 30 | did not show any affinity | binding to SmosOBP12 (in words) [2]: did not show any affinity |
| CCCCCCCCCCCC [Dodecane] | > 40 | – | > 11.3 | > 14 | > 30 | – | – |
